Reference: patent publication US9937182B2, “Therapeutic strategies for the treatment of preeclampsia” (UNIVERSITY OF IOWA RESEARCH FOUNDATION, priority 2013, dated 2018)
Several values for one entry are separate records, joined by “and”; a condition that tells them apart may be missing. Equal values may be shown once. Entries after “also recorded” stand apart in the source; their conditions may differ.

Experiments:
abdominal aorta = test: Abdominal aortic ring vascular reactivity (organ bath); assay type: cell-based, mice; settings: contractile response
Procedure: Aortic Vascular Reactivity: Abdominal aortic rings were assessed for vascular reactivity as previously described (32). Briefly, mice were euthanized by overdose of pentobarbital (50 mg, i.p.), and the abdominal aorta was quickly removed and placed in Kreb's buffer containing (in mmol/L): 118.3 NaCl, 4.7 KCl, 1.2 MgSO4, 1.2 KH2PO4, 25 NaHCO3, 2.5 CaCl2 and 11 glucose. Vascular rings (4-5 mm in length) were suspended in oxygenated Kreb's buffer (95% O2/5% CO2) in organ baths at 37° C. and connected to a force transducer via steel hooks. Resting tension was adjusted to 0.5 grams over 45 minutes. Contractile responses were tested in response to AVP (10^−10-10^−6 mol/L), phenylephrine (PE, 10^−8-3×10^−5), endothelin-1 (ET-1, 10^−10-10^−7), prostaglandin F2α (PGF2α, 10^−7-10^−4), and angiotensin II (Ang II, 10^−10-10^−7). Following sub-maximal contraction with PGF2α (40-50% of max; 3×10^−6-6×10^−6), relaxation responses to acetylcholine (10^−8-3×10^−5) and sodium nitroprusside (10^−9-10^−5) were determined.
Statistics: Data were analyzed by ANOVA with repeated measures as appropriate. Post-hoc analyses were performed using Bonferroni multiple-comparisons procedures. EC50 and maximum response calculations were performed by fitting individual dose-response data sets to a four-parameter logistic function (Hillslope method); y=min+([…])/(1+(x/EC50)^Hillslope). All mRNA fold changes were calculated using the Livak method (54). All analytical comparisons were performed using SigmaStat/SigmaPlot (Systat). All data are presented as mean±sem.

C57Bl/6J mice = test: Vasopressin infusion (240 ng/hr) during pregnancy, preeclampsia-like phenotypes; assay type: in vivo
Procedure: Animal Studies: Female C57Bl/6J mice were obtained from Jackson Laboratories between 8-12 weeks of age. Osmotic minipumps infusing vasopressin (240 ng/hr) or saline vehicle were inserted into the subcutaneous space via incision between the scapulae. Following three days of recovery, females were mated with male C57Bl/6J mice. Presence of a vaginal plug indicated gestational day 0.5. Blood pressure was tracked before mating and throughout gestation by tail-cuff plethysmography. On gestational day 18, females were sacrificed for necropsy. Pup weight was recorded. Dam kidney sections were generated and imaged by electron microscopy by the University of Iowa Department of Pathology. All studies were approved by the University of Iowa Animal Care and Use Committee (ACURF #1211239).

C57Bl/6J female mice [1] = test: Vasopressin infusion during pregnancy, tail-cuff blood pressure; assay type: in vivo; settings: vasopressin 24 ng/hr s.c. compared to 2.4 ng/hr s.c., P=0.03
Procedure: Method: Wildtype C57Bl/6J female mice were chronically infused with varied doses of arginine vasopressin (Sigma-Aldrich), via subcutaneous osmotic minipumps (Alzet), for three days preceding mating, then through gestational day 16. Mice were first acclimated to the restraint devices used for recordings for one week (“week −3”) before data recordings began. Blood pressure was assessed daily for two weeks preceding minipump implantation, through gestational day 16. Blood pressure was measured using tail-cuff plethysmography (Visitech). On any given recording day, the mouse was restrained and lightly warmed throughout the (30 min) recording period. Thirty consecutive 1 min inflation/deflation cycles were performed and successful pressure determinations were averaged within recording period for each mouse. Data sets from individual days with fewer than 10 successful determinations were excluded from analyses. Daily blood pressure values were averaged within animal for each week for statistical comparisons.

[2] = system: wildtype female mice (C57Bl/6 background); test: Vasopressin infusion (24 ng/hr) throughout pregnancy, fetal and placental masses and resorption at GD18; assay type: in vivo; settings: for Raw fetal mass (Fetus): individual fetuses; for Raw placental mass (Placenta): individual placentas
Procedure: Methods: Nine adult wildtype female mice were obtained from in-house breeding colonies that are based on the C57Bl/6 background strain. Three days before breeding, females were implanted with subcutaneous osmotic minipumps (Alzet) to continuously deliver arginine vasopressin (AVP, Sigma-Aldrich) at 24 ng/hr. Females were mated for two consecutive nights with wildtype male C57BL/6J males purchased from Jackson Laboratories. GD1 was defined based upon the presence of a vaginal sperm plug. On gestational day 18, female mice were sacrificed by CO2 asphyxiation, and fetuses and fetoplacental units were isolated by blunt dissection.

C57Bl/6J female mice [3] = test: Vasopressin infusion 0.24, 2.4 or 24 ng/hr during pregnancy, proteinuria and intrauterine growth restriction; assay type: in vivo; settings: for fetal masses: dams infused with 24 ng/hr compared to 2.4 ng/hr vasopressin; for urine protein content: pregnant mice, GD17-GD18, vasopressin 0.24, 2.4, 24 ng/hr
Procedure: Method: Eighteen female C57BL/6J mice were obtained from the Jackson Laboratories. Subcutaneous osmotic minipumps (Alzet) were implanted to deliver vasopressin at 0.24, 2.4, or 24 ng/hr (six mice each group). After three days, mice were mated with wildtype C57BL/6J male mice for one night (thereby defining gestational day zero). On GD16, mice were placed into single-mouse metabolic cages (Nalgene) to collect urine for two consecutive nights. On GD18, mice were sacrificed to quantify and collect fetuses and placentas. Urine protein was assessed by commercially-available BCA assay (Pierce).

[4] = vasopressin 240 ng/hr sc infusion vs saline
[5] = all six pregnancies, vasopressin 24 ng/hr, GD18
[6] = average of dam 200245-2 (HD4), vasopressin 24 ng/hr, GD18
[7] = average of dam 200245-4 (HD5), vasopressin 24 ng/hr, GD18
[8] = average of dam 200301-2 (HD2), vasopressin 24 ng/hr, GD18
[9] = average of dam 200301-4 (HD3), vasopressin 24 ng/hr, GD18
[10] = average of dam 200357-1 (HD6), vasopressin 24 ng/hr, GD18
[11] = average of dam 200372-3 (HD9), vasopressin 24 ng/hr, GD18
[12] = dam 200245-2 (HD4), vasopressin 24 ng/hr, GD18
[13] = dam 200245-4 (HD5), vasopressin 24 ng/hr, GD18
[14] = dam 200301-2 (HD2), vasopressin 24 ng/hr, GD18
[15] = dam 200301-4 (HD3), vasopressin 24 ng/hr, GD18
[16] = dam 200357-1 (HD6), vasopressin 24 ng/hr, GD18
[17] = dam 200372-3 (HD9), vasopressin 24 ng/hr, GD18

NC(=O)CC[C@@H]1NC(=O)[C@H](Cc2ccccc2)NC(=O)[C@H](Cc2ccc(O)cc2)NC(=O)[C@@H](N)CSSC[C@@H](C(=O)N2CCC[C@H]2C(=O)N[C@@H](CCCN=C(N)N)C(=O)NCC(N)=O)NC(=O)[C@H](CC(N)=O)NC1=O [Arginine vasopressin]
Maximum Response (abdominal aorta; male Control mice): 0.29 ± 0.03 g
Maximum Response (abdominal aorta; male sRA mice): 0.12 ± 0.01 g
proteinuria (C57Bl/6J mice; [4]): apparent proteinuria
rate of pregnancy (fecundity) (C57Bl/6J mice; [4]): significantly reduced the rate of pregnancy; also recorded: significantly reduced fecundity
renal cortex electron microscopy (C57Bl/6J mice; [4]): pathognomic glomerular endotheliosis
blood pressure in pregnancy (C57Bl/6J mice; vasopressin 240 ng/hr sc infusion vs saline, tail-cuff): robust increase in blood pressure; also recorded: appears to induce hypertension
fetal growth (C57Bl/6J mice; vasopressin 240 ng/hr sc infusion, gestational day 18): substantial fetal growth restriction
blood pressure, third week of pregnancy (gestational days 14-16) (C57Bl/6J female mice [1]): increased blood pressure
blood pressure, third week of pregnancy (gestational days 14-16) (C57Bl/6J female mice [1]; listed as AVP): late-pregnancy increase in blood pressure
Avg mass, Fetus [2, 5]: 0.4929 g
Avg mass, Placenta [2, 5]: 0.0628 g
Resorb, total count [2, 5]: 10
resorbed fetoplacental units [2, 5]: 17%
Avg mass, Fetus [2, 6]: 0.7741 g
Avg mass, Placenta [2, 6]: 0.0536 g
Avg mass, Fetus [2, 7]: 0.0371 g
Avg mass, Placenta [2, 7]: 0.0388 g
Avg mass, Fetus [2, 8]: 0.3741 g
Avg mass, Placenta [2, 8]: 0.0760 g
Avg mass, Fetus [2, 9]: 0.3054 g
Avg mass, Placenta [2, 9]: 0.0672 g
Avg mass, Fetus [2, 10]: 0.4660 g
Avg mass, Placenta [2, 10]: 0.0545 g
Avg mass, Fetus [2, 11]: 1.0077 g
Avg mass, Placenta [2, 11]: 0.0761 g
Raw fetal mass (Fetus) [2, 12]: 0.7964 g and 0.5962 g and 0.8258 g and 0.8183 g and 0.8336 g
Raw fetal mass (Fetus) [2, 13]: 0.0154 g and 0.0699 g and 0.0261 g
Raw fetal mass (Fetus) [2, 14]: 0.3756 g and 0.3352 g and 0.3805 g and 0.3954 g and 0.3094 g and 0.3777 g and 0.4078 g and 0.3880 g and 0.3971 g
Raw fetal mass (Fetus) [2, 15]: 0.2866 g and 0.2599 g and 0.3328 g and 0.3609 g and 0.3085 g and 0.3087 g and 0.2955 g and 0.3356 g and 0.3129 g and 0.3034 g and 0.3086 g and 0.2516 g
Raw fetal mass (Fetus) [2, 16]: 0.4865 g and 0.4962 g (2×) and 0.4780 g and 0.4092 g and 0.4543 g and 0.5241 g and 0.4999 g and 0.4399 g and 0.4501 g and 0.5057 g and 0.3521 g
Raw fetal mass (Fetus) [2, 17]: 0.9287 g and 1.0395 g and 1.1359 g and 1.0723 g and 1.0064 g and 0.9679 g and 0.9034 g
Raw placental mass (Placenta) [2, 12]: 0.0679 g and 0.0629 g and 0.0860 g and 0.0898 g and 0.0770 g and 0.0070 g and 0.0157 g and 0.0324 g and 0.0433 g
Raw placental mass (Placenta) [2, 13]: 0.0494 g and 0.0410 g and 0.0261 g and <0.01 g (5×)
Raw placental mass (Placenta) [2, 14]: 0.0687 g and 0.0810 g and 0.0828 g and 0.0796 g and 0.0638 g and 0.0840 g and 0.0936 g and 0.0477 g and 0.0827 g
Raw placental mass (Placenta) [2, 15]: 0.0315 g and 0.0762 g and 0.0747 g and 0.0876 g and 0.0710 g and 0.0789 g and 0.0620 g and 0.0687 g and 0.0669 g and 0.0714 g and 0.0640 g and 0.0529 g
Raw placental mass (Placenta) [2, 16]: 0.0599 g and 0.0709 g and 0.0663 g and 0.0509 g and 0.0480 g and 0.0648 g and 0.0767 g and 0.0678 g and 0.0426 g and 0.0471 g and 0.0569 g and 0.0499 g and 0.0067 g
Raw placental mass (Placenta) [2, 17]: 0.0725 g and 0.0866 g and 0.0753 g and 0.0810 g and 0.0706 g and 0.0702 g and 0.0766 g
fetus mass across all six pregnancies ([2]; n=48, vasopressin 24 ng/hr, GD18, P<0.0001 against 0.90 gram historical control): 0.4929±0.0397 gram/fetus
female mice that became pregnant (of nine) ([2]; vasopressin 24 ng/hr, two nights mating): Six
mice that became pregnant (of six) (C57Bl/6J female mice [3]; 0.24 ng/hr infusion): two
mice that became pregnant (of six) (C57Bl/6J female mice [3]; 2.4 ng/hr infusion): five
mice that became pregnant (of six) (C57Bl/6J female mice [3]; 24 ng/hr infusion): three
preterm labor (C57Bl/6J female mice [3]; 24 ng/hr vasopressin infusion group, gestational day 17): one pregnant mouse exhibited preterm labor
fetal masses (C57Bl/6J female mice [3]; GD18, listed as Vasopressin): dose-dependent intrauterine growth restriction
fetal masses (C57Bl/6J female mice [3]; GD18, listed as vasopressin): significantly suppressed
urine protein content (C57Bl/6J female mice [3]; listed as Vasopressin): dose-dependent proteinuria
urine protein content (C57Bl/6J female mice [3]; listed as vasopressin): elevated in a dose-dependent manner
placental masses (C57Bl/6J female mice [3]; vasopressin 0.24, 2.4, 24 ng/hr, GD18): indistinguishable across treatment groups
